# Key:
# uric acid in blood [1] = test: Multiple dose study (SDD, 14 days): uric acid in blood of healthy subjects; format: in vivo, human; conditions: 600 mg BID; 30 subjects enrolled in the study
# Procedure: (§1) Uric acid measurements were performed using a commercial colorimetric assay kit (Beckman Coulter).
# Multiple oral doses of 100 mg twice daily (BID), 300 mg BID, and 600 mg BID of 4-[2-(5-amino-1H-pyrazol-4-yl)-4-chlorophenoxy]-5-chloro-2-fluoro-N-(1,3-thiazol-4-yl)benzenesulfonamide SDD dispersion for oral administration, and placebo, were investigated for 14 days. Subjects were fasted overnight prior to the morning doses and for at least 2 hours prior to the evening doses. Food was withheld for at least 2 hours postdose.
# A total of 30 subjects (all male) were enrolled in the study and 27 subjects completed the study (three subjects were withdrawn due to adverse events during treatment with 600 mg BID 4-[2-(5-amino-1H-pyrazol-4-yl)-4-chlorophenoxy]-5-chloro-2-fluoro-N-(1,3-thiazol-4-yl)benzenesulfonamide).
# uric acid in blood [2] = test: Multiple dose study (TS, 14 days): uric acid in blood of healthy and elderly subjects; format: in vivo, human
# Procedure: as §1
# (§2) Multiple oral doses of 4-[2-(5-amino-1H-pyrazol-4-yl)-4-chlorophenoxy]-5-chloro-2-fluoro-N-(1,3-thiazol-4-yl)benzenesulfonamide TS dispersion for oral administration, and placebo, were investigated for 14 days, as follows: • healthy subjects, 300 mg twice daily (BID,) • healthy subjects, 450 mg BID, and • elderly subjects, 300 mg BID.
# (§3) Subjects were fasted overnight prior to the morning doses and for at least 2 hours prior to the evening doses. Food was withheld for at least 2 hours postdose.
# A total of 49 subjects were enrolled in the study of which 39 received 4-[2-(5-amino-1H-pyrazol-4-yl)-4-chlorophenoxy]-5-chloro-2-fluoro-N-(1,3-thiazol-4-yl)benzenesulfonamide TS and 10 received placebo.
# uric acid in urine [3] = test: Multiple dose study (TS, 14 days): fraction of uric acid excreted in urine; format: in vivo, human; conditions: for Fraction excreted of uric acid: urine
# Procedure: as §2, §3
# Uric acid was also measured in urine collected over 24 hours prior to dosing on Day 1, and then on Days 6, 14 and 16. The percent excreted fraction of uric acid in urine was calculated and analyzed with a linear mixed effects model.
# URAT-1 transporter = target: T1, URAT-1 transporter (Homo sapiens, UniProt Q96S37); test: URAT-1 inhibitor activity: [14C]-uric acid uptake in HEK-URAT1 cells; format: cell-based; conditions: [14C]-uric acid (20 μM), 2 minutes, normalised to the standard compound benzbromarone, read-out: inhibition of uric acid uptake (IC50)
# T1 construct: expressed in transfected cells; host or cells: HEK293 cells, transient transfection with Lipofectamine 2000
# T1 sequence (Q96S37 1-553): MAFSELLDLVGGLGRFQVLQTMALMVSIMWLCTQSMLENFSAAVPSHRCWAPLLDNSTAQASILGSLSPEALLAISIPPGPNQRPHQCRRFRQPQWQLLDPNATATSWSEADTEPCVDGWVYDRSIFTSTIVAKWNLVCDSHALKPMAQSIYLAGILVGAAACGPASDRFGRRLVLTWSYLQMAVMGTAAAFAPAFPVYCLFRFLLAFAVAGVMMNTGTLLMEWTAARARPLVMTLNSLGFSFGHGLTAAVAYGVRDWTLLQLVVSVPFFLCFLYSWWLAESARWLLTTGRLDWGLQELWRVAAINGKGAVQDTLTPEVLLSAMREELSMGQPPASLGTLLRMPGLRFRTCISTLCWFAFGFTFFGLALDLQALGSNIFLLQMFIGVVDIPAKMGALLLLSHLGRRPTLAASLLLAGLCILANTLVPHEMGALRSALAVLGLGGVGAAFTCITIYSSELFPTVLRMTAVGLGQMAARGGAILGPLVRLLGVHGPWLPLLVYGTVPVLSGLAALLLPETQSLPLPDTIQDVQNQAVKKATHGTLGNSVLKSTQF
# Procedure: The potency of 4-[2-(5-amino-1H-pyrazol-4-yl)-4-chlorophenoxy]-5-chloro-2-fluoro-N-(1,3-thiazol-4-yl)benzenesulfonamide as an inhibitor of the URAT-1 transporter was determined as follows.
# HEK293 cells were grown in medium consisting of Dulbecco's modified Eagle medium (DMEM) with L-GlutaMax (4.5 g of glucose per litre), supplemented with heat-inactivated foetal calf serum (10% v/v), 100 U/mL penicillin and 100 μg/mL streptomycin. The HEK cells were routinely cultured in 75 cm^2 tissue culture flasks in a humidified incubator at approximately 37° C. in approximately 95% air/5% CO2. […]
# One day after transfection, culture medium was removed from the wells and the cells were pre-incubated with 0.2 mL of chlorine-free incubation medium (125 mM Na-gluconate, 4.8 mM K-gluconate, 1.3 mM Ca-gluconate, 1.2 mM KH2PO4, 1.2 mM MgSO4, 5.6 mM D-glucose, 25 mM HEPES, pH 7.4), in the absence and presence of 4-[2-(5-amino-1H-pyrazol-4-yl)-4-chlorophenoxy]-5-chloro-2-fluoro-N-(1,3-thiazol-4-yl)benzenesulfonamide (0-30 μM), for 15 minutes at approximately 37° C. […] The concentrations of [^14C]-uric acid were determined by liquid scintillation counting (LSC). The inhibition of [^14C]-uric acid transport was also determined in the presence of the known inhibitor benzbromarone (30 μM). […]
# The amount of radioactivity present in cell lysate samples was determined by liquid scintillation counting (LSC). […]
# uric acid in blood [4] = test: Single dose study: uric acid in blood of healthy subjects (colorimetric assay kit); format: in vivo, human; conditions: fasted
# Procedure: as §1
# Single doses of 4-[2-(5-amino-1H-pyrazol-4-yl)-4-chlorophenoxy]-5-chloro-2-fluoro-N-(1,3-thiazol-4-yl)benzenesulfonamide SDD (‘SDD’) dispersion for oral administration, ranging from 10 mg to 2400 mg, were investigated. In addition, single doses of 4-[2-(5-amino-1H-pyrazol-4-yl)-4-chlorophenoxy]-5-chloro-2-fluoro-N-(1,3-thiazol-4-yl)benzenesulfonamide tosylate (‘TS’) dispersion for oral administration, ranging from 200 mg to 1000 mg, were also investigated.
# The following doses were investigated and all doses were given in the fasted state with the exception of 200 mg and 1000 mg SDD dispersions, which were given in both the fasted state and after a high-fat meal (‘fed’).
# A total of 61 subjects (all male) participated and all received at least one dose of SDD or TS dispersion for oral administration.
# Mean data of uric acid levels per dose group are given as follows: • SDD fasted: Table 5 • SDD fed and fasted Table 6 • TS Table 7
# [5] = Stability of the tosylate salt versus free base and other salts; format: physicochemical
# [6] = Aqueous solubility of the tosylate salt; format: physicochemical
# uric acid in urine [7] = test: Multiple dose study (TS, 14 days): fraction of uric acid excreted in urine; format: in vivo, human; conditions: day 10
# [8] = TS oral 300 mg BID, elderly subjects, day 6
# [9] = TS oral 300 mg BID, elderly subjects, day 14
# [10] = TS oral 300 mg BID, healthy subjects, day 6
# [11] = TS oral 300 mg BID, healthy subjects, day 14
# [12] = TS oral 450 mg BID, healthy subjects, day 6
# [13] = TS oral 450 mg BID, healthy subjects, day 14
smiles,measurement,setting,value
"Nc1[nH]ncc1-c1cc(Cl)ccc1Oc1cc(F)c(S(=O)(=O)Nc2cscn2)cc1Cl [4-[2-(5-amino-1H-pyrazol-4-yl)-4-chlorophenoxy]-5-chloro-2-fluoro-N-(1,3-thiazol-4-yl)benzenesulfonamide]",subjects withdrawn due to adverse events,uric acid in blood [1],three
same,median blood uric acid concentration versus LLN,"uric acid in blood [2]; 450 mg BID, Day 3",fell below LLN
same,Concentrations of uric acid in blood following dosing,uric acid in blood [2]; TS BID for 14 days,decreased
same,median blood uric acid concentration versus LLN,"uric acid in blood [2]; all cohorts (300 mg and 450 mg BID), Day 6",below the LLN
same,time until blood uric acid returned to above the LLN after cessation of dosing,uric acid in blood [2]; all subjects (i.e. by Day 16),≤ 2 days
same,excreted fraction of uric acid in urine after dosing,uric acid in urine [3]; Day 16,returns to baseline by Day 16
same,excreted fraction of uric acid in urine during dosing,"uric acid in urine [3]; TS BID, 24 hour urine",increases during dosing
same,IC50,URAT-1 transporter,3.54 µM
"Cc1ccc(S(=O)(=O)O)cc1.Nc1[nH]ncc1-c1cc(Cl)ccc1Oc1cc(F)c(S(=O)(=O)Nc2cscn2)cc1Cl [TS, 4-[2-(5-amino-1H-pyrazol-4-yl)-4-chlorophenoxy]-5-chloro-2-fluoro-N-(1,3-thiazol-4-yl)benzenesulfonamide tosylate]",Mean uric acid,"uric acid in blood [4]; TS oral single dose 200 mg, 0 hours",5.92 mg/dL
same,Mean uric acid,"uric acid in blood [4]; TS oral single dose 200 mg, 48 hours",5.43 mg/dL
same,Mean uric acid,"uric acid in blood [4]; TS oral single dose 600 mg, 0 hours",6.21 mg/dL
same,Mean uric acid,"uric acid in blood [4]; TS oral single dose 600 mg, 48 hours",5.04 mg/dL
same,Mean uric acid,"uric acid in blood [4]; TS oral single dose 1000 mg, 0 hours",6.40 mg/dL
same,Mean uric acid,"uric acid in blood [4]; TS oral single dose 1000 mg, 48 hours",4.86 mg/dL
same,Mean uric acid,"uric acid in blood [2]; TS oral 300 mg BID for 14 days, elderly subjects, day 0",5.43 mg/dL
same,Mean uric acid,"uric acid in blood [2]; TS oral 300 mg BID for 14 days, healthy subjects, day 0",5.56 mg/dL
same,Mean uric acid,"uric acid in blood [2]; TS oral 300 mg BID, elderly subjects, day 3",3.41 mg/dL
same,Mean uric acid,uric acid in blood [2]; [8],2.99 mg/dL
same,Mean uric acid,"uric acid in blood [2]; TS oral 300 mg BID, elderly subjects, day 8",3.57 mg/dL
same,Mean uric acid,"uric acid in blood [2]; TS oral 300 mg BID, elderly subjects, day 10",3.37 mg/dL
same,Mean uric acid,uric acid in blood [2]; [9],3.59 mg/dL
same,Mean uric acid,"uric acid in blood [2]; TS oral 300 mg BID, healthy subjects, day 3",3.50 mg/dL
same,Mean uric acid,uric acid in blood [2]; [10],3.23 mg/dL
same,Mean uric acid,"uric acid in blood [2]; TS oral 300 mg BID, healthy subjects, day 8",3.54 mg/dL
same,Mean uric acid,"uric acid in blood [2]; TS oral 300 mg BID, healthy subjects, day 10",3.79 mg/dL
same,Mean uric acid,uric acid in blood [2]; [11],3.78 mg/dL
same,Mean uric acid,"uric acid in blood [2]; TS oral 450 mg BID for 14 days, healthy subjects, day 0",5.89 mg/dL
same,Mean uric acid,"uric acid in blood [2]; TS oral 450 mg BID, healthy subjects, day 3",3.05 mg/dL
same,Mean uric acid,uric acid in blood [2]; [12],3.00 mg/dL
same,Mean uric acid,"uric acid in blood [2]; TS oral 450 mg BID, healthy subjects, day 8",3.21 mg/dL
same,Mean uric acid,"uric acid in blood [2]; TS oral 450 mg BID, healthy subjects, day 10",3.45 mg/dL
same,Mean uric acid,uric acid in blood [2]; [13],3.56 mg/dL
same,Fraction excreted of uric acid,"uric acid in urine [3]; TS oral 300 mg BID, elderly subjects, day 1",6.17%
same,Fraction excreted of uric acid,uric acid in urine [3]; [8],13.79%
same,Fraction excreted of uric acid,uric acid in urine [3]; [9],7.66%
same,Fraction excreted of uric acid,"uric acid in urine [3]; TS oral 300 mg BID, healthy subjects, day 1",8.44%
same,Fraction excreted of uric acid,uric acid in urine [3]; [10],17.41%
same,Fraction excreted of uric acid,uric acid in urine [3]; [11],6.43%
same,Fraction excreted of uric acid,"uric acid in urine [3]; TS oral 450 mg BID, healthy subjects, day 1",8.61%
same,Fraction excreted of uric acid,uric acid in urine [3]; [12],19.81%
same,Fraction excreted of uric acid,uric acid in urine [3]; [13],7.69%
same,solid form stability,"[5]; crystalline form, versus free base",better solid form stability than the free base
same,stability with regard to disassociation,[5]; versus other salts,greater stability with regard to disassociation than other salts
same,chemical stability,"[5]; with regard to formulation and storage, versus free base",improved chemical stability over the free base
same,aqueous solubility,[6],good aqueous solubility
same,Fraction excreted of uric acid,"uric acid in urine [7]; TS oral 300 mg BID, elderly subjects",13.02%
same,Fraction excreted of uric acid,"uric acid in urine [7]; TS oral 300 mg BID, healthy subjects",14.99%
same,Fraction excreted of uric acid,"uric acid in urine [7]; TS oral 450 mg BID, healthy subjects",17.09%

# From patent publication US20140248252A1, “New Salt And Medical Use” (Pfizer Limited, priority 2011, published 2014)
